The structures appear in SMILES notation.

The record followed here is PMC6934184, “Selective DNA-PKcs inhibition extends the therapeutic index of localized radiotherapy and chemotherapy” (The Journal of Clinical Investigation, 2019).

In this assay the target is T1, GRK7 (Homo sapiens, UniProt Q8WTQ7).
T1 construct: purchased Thermo Fisher Scientific (Life Technologies) SelectScreen
As to the kind of experiment: SelectScreen Z'LYTE. The format is biochemical. The essentials:
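Compound tested in SelectScreen activity assays, Z'LYTE for CSF1R, CDK1/cyclin B and MAP2K6 and Adapta for CAMK1. ATP for CAMK1 was listed as 10, and Km app was used for CSF1R. Results are expressed in percent.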

T1 sequence (Q8WTQ7 whole entry): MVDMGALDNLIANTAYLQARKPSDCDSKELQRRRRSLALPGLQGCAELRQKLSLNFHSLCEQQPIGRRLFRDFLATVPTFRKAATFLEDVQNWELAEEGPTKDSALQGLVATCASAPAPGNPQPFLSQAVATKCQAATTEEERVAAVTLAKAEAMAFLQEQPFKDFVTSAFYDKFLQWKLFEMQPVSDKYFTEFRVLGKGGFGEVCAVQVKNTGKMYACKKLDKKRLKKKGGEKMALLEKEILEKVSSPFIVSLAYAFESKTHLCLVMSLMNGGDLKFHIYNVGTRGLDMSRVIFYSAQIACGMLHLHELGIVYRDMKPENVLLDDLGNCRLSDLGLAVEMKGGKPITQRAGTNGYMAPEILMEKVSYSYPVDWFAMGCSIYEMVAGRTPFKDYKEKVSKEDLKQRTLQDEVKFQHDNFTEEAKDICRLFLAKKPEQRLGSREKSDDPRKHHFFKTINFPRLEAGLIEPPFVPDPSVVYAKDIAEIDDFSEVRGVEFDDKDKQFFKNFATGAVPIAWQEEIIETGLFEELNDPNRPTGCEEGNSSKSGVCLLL

`CN(C(=O)CN1CCOCC1)c1ccc2sc3c(-c4cccc5c(=O)cc(N6CC7CCC(C6)O7)oc45)cccc3c2c1` [NU5455]: the inhibition at 1 µM was -3%.
